# Experimental data from ChEMBL document CHEMBL1681755, “Antiviral agents 3. Discovery of a novel small molecule non-nucleoside inhibitor of hepatitis B virus (HBV)” (Bioorg Med Chem Lett, 2011).
# Assays:
# [1] = Cytotoxicity against human HepG2(2.2.15) cells by neutral red dye uptake assay; type: functional
# Hepatitis B virus [2] = assay: Antiviral activity against Hepatitis B virus infected in human HepG2(2.2.15) cells assessed as reduction in viral DNA by Southern blotting; type: functional, organism-based
# Huh-7 = assay: Cytotoxicity against human HuH7 cells after 4 days by neutral red dye uptake assay; type: functional; conditions: Huh-7, 96 h
# HepG2 = assay: Cytotoxicity against human HepG2 cells after 3 days by neutral red dye uptake assay; type: functional; conditions: HepG2, 72 h
# Hepatitis B virus [3] = assay: Antiviral activity against Hepatitis B virus infected in human Huh7 cells assessed as reduction in viral DNA after 4 days by Southern blotting; conditions: Huh-7, 96 h
# Hepatitis B virus [4] = assay: Antiviral activity against Hepatitis B virus infected in human HepG2 cells assessed as reduction in viral DNA after 3 days by Southern blotting; type: functional, organism-based; conditions: HepG2, 72 h
Structure (SMILES),CC50 [1] [µM],EC50 (Hepatitis B virus [2]) [µM],CC50 (Huh-7) [µM],CC50 (HepG2) [µM],EC50 (Hepatitis B virus [3]) [µM],EC50 (Hepatitis B virus [4]) [µM]
CC1(C)C=Cc2c(ccc3c2C(=O)C(O)=C(C2=C(C4=C(O)C(=O)c5c(ccc6c5C=CC(C)(C)O6)C4=O)C(=O)c4ccccc4C2=O)C3=O)O1,1370,10,,,,
COc1ccc2c(c1)C(=O)C(C1=C(O)C(=O)c3c(ccc4c3C=CC(C)(C)O4)C1=O)=C(C1=C(O)C(=O)c3c(ccc4c3C=CC(C)(C)O4)C1=O)C2=O,466,1.5,,,,
CC(C)Oc1ccc2c(c1)C(=O)C(C1=C(O)C(=O)c3c(ccc4c3C=CC(C)(C)O4)C1=O)=C(C1=C(O)C(=O)c3c(ccc4c3C=CC(C)(C)O4)C1=O)C2=O,> 300,0.154,,,,
CC1(C)C=Cc2c(ccc3c2C(=O)C(O)=C(C2=C(C4=C(O)C(=O)c5c(ccc6c5C=CC(C)(C)O6)C4=O)C(=O)c4c(ccc5c4C=CC(C)(C)O5)C2=O)C3=O)O1,45,7.9,,,,
CC1(C)CCc2c(ccc3c2C(=O)C(O)=C(C2=C(C4=C(O)C(=O)c5c(ccc6c5CCC(C)(C)O6)C4=O)C(=O)c4c(ccc5c4CCC(C)(C)O5)C2=O)C3=O)O1,44,0.096,,,,
CC1(C)C=Cc2c(ccc3c2C(=O)C(O)=C(C2=C(C4=C(O)C(=O)c5c(ccc6c5C=CC(C)(C)O6)C4=O)C(=O)c4c(ccc5c4CCC(C)(C)O5)C2=O)C3=O)O1,279,0.009,,,,
COc1cccc2c1C(=O)C(C1=C(C3=C(O)C(=O)c4cccc(OC)c4C3=O)C(=O)c3ccccc3C1=O)=C(O)C2=O,> 300,> 10,,,,
COc1ccc2c(c1)C(=O)C(O)=C(C1=C(C3=C(O)C(=O)c4cc(OC)ccc4C3=O)C(=O)c3ccccc3C1=O)C2=O,58,0.05,,,,
COc1cc2c(cc1OC)C(=O)C(C1=C(C3=C(O)C(=O)c4cc(OC)c(OC)cc4C3=O)C(=O)c3ccccc3C1=O)=C(O)C2=O,> 300,0.4,,,,
O=C1C(O)=C(C2=C(C3=C(O)C(=O)c4ccccc4C3=O)C(=O)c3ccccc3C2=O)C(=O)c2ccccc21,> 300,> 10,,,,
CC(C)=CCC[C@]1(C)C=Cc2c(ccc3c2C(=O)C(O)=C(C2=C(C4=C(O)C(=O)c5c(ccc6c5C=C[C@@](C)(CCC=C(C)C)O6)C4=O)C(=O)c4ccccc4C2=O)C3=O)O1,14,> 10,,,,
CC1(C)CCc2c(ccc3c2C(=O)C(O)=C(C2=C(C4=C(O)C(=O)c5c(ccc6c5CCC(C)(C)O6)C4=O)C(=O)c4ccccc4C2=O)C3=O)O1,1430,3.9,,,,
COc1ccc2c(c1)C(=O)C(C1=C(C3=C(O)C(=O)c4ccc(OC)cc4C3=O)C(=O)c3ccccc3C1=O)=C(O)C2=O,295,56,,,,
COc1ccc2c(c1)C(=O)C(O)=C(C1=C(C3=C(O)C(=O)c4cc(OC)ccc4C3=O)C(=O)c3c(ccc4c3CCC(C)(C)O4)C1=O)C2=O,> 300,0.66,,,,
CC1(C)C=Cc2c(ccc3c2C(=O)C=C(O)C3=O)O1,> 300,4.3,> 25,> 25,2.5,1.9
CC(C)=CCC[C@]1(C)C=Cc2c(ccc3c2C(=O)C(O)=C(C2=C(C4=C(O)C(=O)c5c(ccc6c5C=C[C@@](C)(CCC=C(C)C)O6)C4=O)C(=O)c4c(ccc5c4C=C[C@@](C)(CCC=C(C)C)O5)C2=O)C3=O)O1 [CONOCURVONE],> 100,> 10,,,,
Nc1ccn([C@@H]2CS[C@H](CO)O2)c(=O)n1 [LAMIVUDINE],2130,0.06,0.1,> 25,0.1,> 2.5
Nc1nc(O)c2ncn(CCC(CO)CO)c2n1 [PENCICLOVIR],552,3.4,,,,
